# Experiments:
# Echinochloa crus-galli [1] = experiment: Herbicidal effect test in submerged condition by treatment before weed-generation (2); assay type: in vivo; conditions: 0.3 g/a; submerged paddy soil pot, water surface treated on day of sowing; 3 weeks after treatment
# Experimental: (§1) Herbicidal Effect Test in Submerged Condition by Treatment Before Weed-Generation (2)
# (§2) Paddy surface soil was placed in a plastic pot of 1/10000 are, water was poured therein and mixed. After seeds of Scirpus juncoides were sown, paddy surface soil was added by 2 cm, and submerged with water, and then seeds of Echinochloa crus-galli, Scirpus juncoides, Monochoria vaginalis, Rotala indica and Lindernia pyxidaria were sown together. In addition, rice seedlings at 2.5th leaf stage were transplanted, and fixed to the paddy surface in a state where the roots were exposed on the other side. On the day when the seeds were sown, the wettable powder of the present invention prepared according to Formulation Example 1 was diluted with water so as to give a predetermined formulation amount, and the surface of the water was treated with the diluted wettable powder. The plants were grown by putting the pot in a green house at 25 to 30° C. The herbicidal effect for each plant was investigated 3 weeks after treatment with the herbicide according to the criteria indicated in Test Example 1.
# Scirpus juncoides [2] = experiment: as above; assay type: in vivo; conditions: 0.3 g/a; submerged paddy soil pot, water surface treated on day of sowing; 3 weeks after treatment
# Experimental: as §1, §2
# Monochoria vaginalis [3] = experiment: as above; assay type: in vivo; conditions: 0.3 g/a; submerged paddy soil pot, water surface treated on day of sowing; 3 weeks after treatment
# Experimental: as §1, §2
# Lindernia pyxidaria = experiment: as above; assay type: in vivo; conditions: 0.3 g/a; submerged paddy soil pot, water surface treated on day of sowing; 3 weeks after treatment
# Experimental: as §1, §2
# Rotala indica = experiment: as above; assay type: in vivo; conditions: 0.3 g/a; submerged paddy soil pot, water surface treated on day of sowing; 3 weeks after treatment
# Experimental: as §1, §2
# [4] = tested on: transplanted rice (Oryza sativa); experiment: as above; assay type: in vivo; conditions: 0.3 g/a; submerged paddy soil pot, rice seedlings at 2.5th leaf stage transplanted; 3 weeks after treatment
# Experimental: as §1, §2
# Echinochloa crus-galli [5] = experiment: Herbicidal effect test in submerged condition by treatment before weed-generation (1); assay type: in vivo; conditions: 0.64 g/a, water surface treated on day of sowing, 3 weeks after treatment
# Summary of the method: (§3)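 Treatment was made before weed emergence by applying the diluted wettable powder to the flood water (4 cm) on the day of sowing, with rice transplanted at the 2.5th leaf stage. After 3 weeks in a greenhouse (25 to 30° C), effect was graded 0–5.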
# Scirpus juncoides [6] = experiment: as above; assay type: in vivo; conditions: 0.64 g/a, water surface treated on day of sowing, 3 weeks after treatment
# Summary of the method: as §3
# Monochoria vaginalis [7] = experiment: as above; assay type: in vivo; conditions: 0.64 g/a, water surface treated on day of sowing, 3 weeks after treatment
# Summary of the method: as §3
# Echinochloa crus-galli [8] = experiment: Herbicidal effect test in submerged condition by treatment during weed-growth stage (1); assay type: in vivo; conditions: 0.64 g/a, treated at 1st to 2nd leaf stage, 3 weeks after treatment
# Summary of the method: (§4)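 Paddy-soil pots flooded to 4 cm water depth were sown and grown in a greenhouse at 25 to 30° C until weeds reached 1st to 2nd leaf stage. A wettable powder diluted in water to a predetermined formulation amount was applied to the water surface. Herbicidal effect was scored 3 weeks after treatment against set criteria.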
# Scirpus juncoides [9] = experiment: as above; assay type: in vivo; conditions: 0.64 g/a, treated at 1st to 2nd leaf stage, 3 weeks after treatment
# Summary of the method: as §4
# Monochoria vaginalis [10] = experiment: as above; assay type: in vivo; conditions: 0.64 g/a, treated at 1st to 2nd leaf stage, 3 weeks after treatment
# Summary of the method: as §4
# [11] = tested on: transplanted rice (Oryza sativa); experiment: Crop injury test on rice in water leakage condition; assay type: in vivo; conditions: 0.15 g/a; water leakage 2 cm/day x 3 days; treated on third day after transplantation; 3 weeks after treatment
# Experimental: Crop Injury Test on Rice in Water Leakage Condition A mixed soil of alluvial soil and diluvial soil was placed in a plastic pot perforated at the bottom of 1/10000 are, water was poured therein and mixed, and then rice seedlings at 2.5th leaf stage were transplanted. Water leakage treatment was carried out by placing the pot in a plastic vat, and controlling the amount of water in the vat kept at a condition of 2 cm/day×3 days. The pot was put in a green house at 25 to 30° C., on third day after transplantation, the wettable powder of the present invention prepared according to Formulation Example 1 was diluted with water so as to give a predetermined formulation amount, and the surface of the water was treated with the diluted wettable powder. The crop injury on rice was investigated 3 weeks after treatment with the herbicide according to the criteria indicated in Test Example 1.
# [12] = tested on: rice transplanted at a depth of 0 cm; experiment: Herbicidal effect test in submerged condition by treatment before weed-generation (2); assay type: in vivo, Oryza sativa; conditions: 0.3 g/a; submerged paddy soil pot, seedlings fixed to paddy surface with roots exposed; 3 weeks after treatment
# Experimental: as §1, §2
structure (smiles),measurement,setting,value
COc1cc(OC)nc(NC(=O)NS(=O)(=O)c2c(C3=NOCCO3)c(C)nn2C)n1 [Comparative Compound 2],"herbicidal effect, A: Echinochloa crus-galli",Echinochloa crus-galli [1],5 (Herbicidal rate 90% or more (almost complete death))
same,"herbicidal effect, B: Scirpus juncoides",Scirpus juncoides [2],5 (Herbicidal rate 90% or more (almost complete death))
same,"herbicidal effect, C: Monochoria vaginalis",Monochoria vaginalis [3],5 (Herbicidal rate 90% or more (almost complete death))
same,"herbicidal effect, O: Lindernia pyxidaria",Lindernia pyxidaria,5 (Herbicidal rate 90% or more (almost complete death))
same,"herbicidal effect, N: Rotala indica",Rotala indica,5 (Herbicidal rate 90% or more (almost complete death))
same,"herbicidal effect, a: transplanted rice (Oryza sativa)",[4],4 (Herbicidal rate 70% or more and less than 90%)
same,"herbicidal effect, A: Echinochloa crus-galli",Echinochloa crus-galli [5],5 (Herbicidal rate 90% or more (almost complete death))
same,"herbicidal effect, B: Scirpus juncoides",Scirpus juncoides [6],5 (Herbicidal rate 90% or more (almost complete death))
same,"herbicidal effect, C: Monochoria vaginalis",Monochoria vaginalis [7],5 (Herbicidal rate 90% or more (almost complete death))
same,"herbicidal effect, A: Echinochloa crus-galli",Echinochloa crus-galli [8],5 (Herbicidal rate 90% or more (almost complete death))
same,"herbicidal effect, B: Scirpus juncoides",Scirpus juncoides [9],5 (Herbicidal rate 90% or more (almost complete death))
same,"herbicidal effect, C: Monochoria vaginalis",Monochoria vaginalis [10],5 (Herbicidal rate 90% or more (almost complete death))
same,"crop injury on rice, a: transplanted rice (Oryza sativa)",[11],5 (Herbicidal rate 90% or more (almost complete death))
same,"herbicidal effect, g: rice transplanted at a depth of 0 cm",[12],4 (Herbicidal rate 70% or more and less than 90%)
